Laboratory results as given in patent publication US8143259B2, “Cold menthol receptor antagonists” (Janssen Pharmaceutica, NV, priority 2008, dated 2012).
“And” between values parts separate entries of the source, which are not always exact repeats. Equal entries are not always repeated.

What was measured:
[1] = test system: icilin-induced “wet-dog” shakes; assay: Reversal of Icilin-Induced Behaviors in Rats; format: in vivo; details: percent inhibition (reversal) of wet-dog shakes; rat; 30 mg/kg P.O., 20′ post-icilin; 30 mg/kg
Description: Similar shaking or jumping behavior was also evident in mice, rabbits, cats, dogs and monkeys. In humans, icilin produced a sensation of coolness on contact with mucous membranes, cold prickling when 0.1 mg was dropped on the tongue and coldness in the mouth, pharynx and chest lasting 30-60 minutes when 5-10 mg was ingested orally (Wei E T, Seid D A, J Pharm Pharmacol. 1983, 35, 110). The inhibition or reversal of icilin-induced shaking behaviors in rodents provides evidence for the utility of TRPM8 antagonists of the formula (I) in treating or preventing a disease, syndrome, disorder or condition in a subject in which the disease, syndrome, disorder or condition is affected by the modulation of TRPM8 receptors.
Male Sprague Dawley rats (225-450 g, Charles River Labs, n=4-6/treatment) were used to evaluate the ability of selected compounds of the formula (I) to reverse icilin-induced “wet-dog” shakes. Icilin was administered in PEG-400 or 10% solutol/H2O, at 1.0 or 3.0 mg/kg, i.p. and spontaneous “wet-dog” shakes (WDS) were counted 10-20 minutes post-icilin. […] Results are presented as a percent inhibition of shakes, which was calculated as [1−(test compound WDS count/vehicle WDS count)]×100.

[2] = target: T1, canine TRPM8 (Canis lupus familiaris, UniProt Q1A7N1); assay: In Vitro Canine TRPM8 Functional Assay (Ca2+ fluorescence, icilin activation); format: cell-based; details: for inhibition at 0.2 µM: HEK293, 0.2 μM compound; for inhibition at 0.5 µM: HEK293, 0.5 μM compound; for IC50: HEK293 cells stably expressing canine TRPM8, icilin activation, Ca2+ fluorescence; for % Inh @ 0.2 μM: 0.2 μM compound; for % Inh @ 0.5 μM: 0.5 μM compound
T1 construct: expressed in transfected cells
Procedure, shortened: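 HEK293 cells stably expressing canine TRPM8, loaded with Calcium 3 dye; compounds added 5 min before icilin at a concentration giving ~80% maximal response. Peak icilin-evoked Ca2+ fluorescence, basal-subtracted and normalised to maximal response, fitted by sigmoidal nonlinear regression; quadruplicate wells.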

[3] = canine TRPM8 HEK293, icilin, 0.5 µM
[4] = canine TRPM8 HEK293, icilin, 0.2 µM

T1 sequence (Q1A7N1 1-1104): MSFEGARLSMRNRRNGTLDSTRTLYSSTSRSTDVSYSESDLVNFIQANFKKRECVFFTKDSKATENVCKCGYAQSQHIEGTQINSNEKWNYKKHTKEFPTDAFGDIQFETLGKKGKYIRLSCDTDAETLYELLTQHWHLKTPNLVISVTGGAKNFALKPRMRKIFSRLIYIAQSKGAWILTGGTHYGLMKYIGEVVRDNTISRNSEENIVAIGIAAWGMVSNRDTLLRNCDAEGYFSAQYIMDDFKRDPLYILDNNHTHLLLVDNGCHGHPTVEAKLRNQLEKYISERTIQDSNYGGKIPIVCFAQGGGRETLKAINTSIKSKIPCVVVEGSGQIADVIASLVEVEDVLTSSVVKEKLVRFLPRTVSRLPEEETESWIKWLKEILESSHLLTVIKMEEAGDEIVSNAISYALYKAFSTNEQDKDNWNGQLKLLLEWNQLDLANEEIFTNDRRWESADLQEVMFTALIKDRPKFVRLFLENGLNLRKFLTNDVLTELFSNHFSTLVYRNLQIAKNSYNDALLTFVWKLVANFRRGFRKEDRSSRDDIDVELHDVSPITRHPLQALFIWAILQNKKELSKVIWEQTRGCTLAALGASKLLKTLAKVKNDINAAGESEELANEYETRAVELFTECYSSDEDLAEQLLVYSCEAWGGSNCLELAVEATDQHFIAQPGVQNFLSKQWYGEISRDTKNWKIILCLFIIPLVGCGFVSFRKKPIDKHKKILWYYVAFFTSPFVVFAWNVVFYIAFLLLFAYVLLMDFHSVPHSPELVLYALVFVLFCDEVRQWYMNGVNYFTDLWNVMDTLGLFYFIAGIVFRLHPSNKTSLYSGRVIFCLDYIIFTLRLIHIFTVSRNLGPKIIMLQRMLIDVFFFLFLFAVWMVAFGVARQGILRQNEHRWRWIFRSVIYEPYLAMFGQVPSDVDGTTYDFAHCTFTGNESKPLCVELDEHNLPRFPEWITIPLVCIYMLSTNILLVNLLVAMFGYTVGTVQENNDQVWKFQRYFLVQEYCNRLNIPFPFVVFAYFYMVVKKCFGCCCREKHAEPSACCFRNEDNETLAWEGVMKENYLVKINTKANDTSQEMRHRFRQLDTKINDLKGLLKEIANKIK

Row | inhibition at 0.5 µM ([2]; canine TRPM8 HEK293, icilin) [%] | IC50 [2] | Compound | other results
1 |  | 65 nM and 69 nM | O=C(C(Nc1ccccc1F)c1ccc(-c2ccccn2)cc1)N1CCCC1c1ccccc1F (single isomer, unassigned) [Cpd 297] | % Inh @ 0.2 μM [2, 4]: 85% and 87%
2 |  | 16.7 nM | O=C(C(Cc1c(F)cccc1F)c1ccc(C(F)(F)F)cc1)N1CCCC1c1ccccc1F (stereo not drawn) [Cpd 244, 3-(2,6-Difluoro-phenyl)-1-[2-(2-fluoro-phenyl)-pyrrolidin-1-yl]-2-(4-trifluoromethyl-phenyl)-propan-1-one] | inhibition at 0.2 µM ([2]; canine TRPM8 HEK293, icilin): 98%
3 |  | 2 nM | Nc1ccc(C2CCCN2C(=O)C(Nc2ccccc2F)c2ccc(Cl)cc2)cc1 (stereo not drawn) [Cpd 290] | inhibition at 0.2 µM ([2]; canine TRPM8 HEK293, icilin): 98%
4 |  | 100 nM | O=C(C(Nc1ccccc1F)c1cnc2ccccc2c1)N1Cc2ccccc2C1 (stereo not drawn) [Cpd 371] | 
5 |  | 8.4 nM | O=C(C(Nc1ccccc1F)c1ccc2ncccc2c1)N1CCCC1c1ccccc1F (single isomer, unassigned) [Cpd 247] | inhibition at 0.2 µM ([2]; canine TRPM8 HEK293, icilin): 93%
6 |  | 6 nM and 8 nM | O=C(C(Nc1ccccc1F)c1ccc(-c2cccnc2)cc1)N1CCCC1c1ccccc1F (mixture of isomers) [Cpd 300] | % Inh @ 0.2 μM [2, 4]: 101% and 102%
7 |  | 110 nM | O=C(C(Oc1ccccc1F)c1ccc(C(F)(F)F)cc1)N1CCCC1c1ccccc1F (stereo not drawn) [Cpd 263, 2-(2-Fluoro-phenoxy)-1-[2-(2-fluoro-phenyl)-pyrrolidin-1-yl]-2-(4-trifluoromethyl-phenyl)-ethanone] | inhibition at 0.2 µM ([2]; canine TRPM8 HEK293, icilin): 84%
8 |  | 120 nM | O=C(C(Nc1ccccc1F)c1cc2ccccc2s1)N1Cc2cccnc2C1 (stereo not drawn) [Cpd 370] | 
9 |  | 38 nM | O=C(C(Nc1ccccc1F)c1ccc(C(F)(F)F)cc1)N1CCCC1c1cncc(Br)c1 (single isomer, unassigned) [Cpd 346] | % Inh @ 0.2 μM [2, 4]: 97%
10 |  | 33 nM | O=C(O)c1cccc([C@@H]2CCCN2C(=O)C(Nc2ccccc2F)c2ccc(C(F)(F)F)cc2)c1 (mixture of isomers) [Cpd 349, 3-{(1S)-1-[2-(2-Fluoro-phenylamino)-2-(4-trifluoromethyl-phenyl)-acetyl]-pyrrolidin-2-yl}-benzoic acid] | inhibition at 0.2 µM ([2]; canine TRPM8 HEK293, icilin): 100%
11 |  | 30.6 nM | O=C(C(c1ccc(C(F)(F)F)cc1)N1CCc2ccccc21)N1CCCC1c1ccccc1 (stereo not drawn) [Cpd 227] | 
12 |  | 6 nM | O=C(C(Nc1ccccc1F)c1cnc2ccccc2c1)N1CCCC1c1ccccc1Cl (stereo not drawn) [Cpd 373] | 
13 |  | 8 nM | COc1ccccc1C1CCCN1C(=O)C(Nc1ccccc1F)c1cnc2ccccc2c1 (single isomer, unassigned) [Cpd 277] | inhibition at 0.2 µM ([2]; canine TRPM8 HEK293, icilin): 101%
14 |  | 24 nM | Cc1nc2ccc(C(Nc3ccccc3F)C(=O)N3CCCC3c3ccccc3F)cc2s1 (single isomer, unassigned) [Cpd 341] | % Inh @ 0.2 μM [2, 4]: 100%
15 |  | 8 nM | O=C(C(Nc1c(F)cccc1F)c1cc2ccccc2s1)N1CCCC1c1ccccc1F (stereo not drawn) [Cpd 361] | inhibition at 0.2 µM ([2]; canine TRPM8 HEK293, icilin): 96%
16 |  | 53.7 nM | O=C(C(Nc1ccccc1F)c1ccc2ncccc2c1)N1CCCC1c1ccccc1F (single isomer, unassigned) [Cpd 251] | % Inh @ 0.2 μM [2, 4]: 90%
17 |  | 21 nM | O=C(C(c1ccc(C(F)(F)F)cc1)N1CCc2ccccc21)N1CCC[C@H]1c1cccnc1 (mixture of isomers) [Cpd 275] | inhibition at 0.2 µM ([2]; canine TRPM8 HEK293, icilin): 94%

Continued, compound first:

Row | Compound | inhibition at 0.5 µM ([2]; canine TRPM8 HEK293, icilin) [%] | IC50 [2] | other results
18 | O=C(C(Nc1ccccc1F)c1ccc(C(F)(F)F)cc1)N1CCCC1c1ccccc1F (single isomer, unassigned) [Cpd 149] | 101 | 45 nM and 74 nM | % Inh [1]: 61% ± 15%; inhibition at 0.2 µM ([2]; canine TRPM8 HEK293, icilin): 83%
19 | O=C(C(Nc1ccccc1)c1ccc(C(F)(F)F)cc1)N1CCCC1c1nccs1 (stereo not drawn) [Cpd 49] | 102 | 78.3 nM | 
20 | O=C(C(Nc1ccccc1F)c1ccc(C(F)(F)F)cc1)N1CCCC1c1ccccc1Cl (stereo not drawn) [Cpd 188] |  |  | % Inh @ 0.2 μM ([2]; canine TRPM8 HEK293, icilin): 30%
21 | O=C(C(CNc1ccccc1)c1ccc(C(F)(F)F)cc1)N1CCCC1c1ccccc1 (mixture of isomers) [Cpd 95] |  |  | % Inh @ 0.5 μM [2, 3]: 67%
22 | O=C(C(CNc1ccccc1F)c1ccc(C(F)(F)F)cc1)N1CCCC1c1ccccc1 (stereo not drawn) [Cpd 108] | 88 | 329 nM | 
23 | O=C(C(Nc1ccccc1F)c1ccc(C(F)(F)F)cc1)N1CCCC1c1ccccc1Cl (racemic) [Cpd 68] | 103 | 7 nM and 12 nM and 13 nM | inhibition at 0.2 µM ([2]; canine TRPM8 HEK293, icilin): 89%
24 | O=C(C(Nc1ccccc1)c1ccc(C(F)(F)F)cc1)N1CCc2ccccc21 (stereo not drawn) [Cpd 33] | 96.5 | 202 nM | 
25 | CN(C)c1ccc(C2CCCN2C(=O)C(Nc2ccccc2F)c2ccc(C(F)(F)F)cc2)cc1 (stereo not drawn) [Cpd 178] |  | 10 nM | inhibition at 0.2 µM ([2]; canine TRPM8 HEK293, icilin): 100%
26 | O=C(C(Nc1ccccc1)c1ccc(C(F)(F)F)cc1)N1CCCC1c1cc2ccccc2[nH]1 (stereo not drawn) [Cpd 26] |  |  | % Inh @ 0.5 μM [2, 3]: 56.872%
27 | 1-[2-(2-Chloro-phenyl)-pyrrolidin-1-yl]-3-phenylamino-2-(4-trifluoromethyl-phenyl)-propan-1-one [Cpd 83] |  | 248 nM | % Inh @ 0.5 μM ([2]; canine TRPM8 HEK293, icilin): 96%
28 | O=C(C(Nc1ccccc1F)c1ccc(C(F)(F)F)cc1)N1CCc2ccccc2C1 (stereo not drawn) [Cpd 65] | 100 | 48 nM | 
29 | COC(=O)C1CCC(c2ccccc2)N1C(=O)C(Nc1c(F)cccc1F)c1ccc(Br)cc1 (stereo not drawn) [Cpd 210] |  | 7 nM | inhibition at 0.2 µM ([2]; canine TRPM8 HEK293, icilin): 99%
30 | O=C(C(Nc1ccccc1Cl)c1ccc(C(F)(F)F)cc1)N1CCc2ccccc21 (racemic) [Cpd 37] |  |  | % Inh @ 0.5 μM ([2]; canine TRPM8 HEK293, icilin): 49.878%
31 | O=C(C(Nc1c(F)cccc1F)c1ccc(Cl)cc1)N1Cc2ccccc2C1 (stereo not drawn) [Cpd 147] | 93 | 132 nM | 
32 | COc1ccccc1C1CCCN1C(=O)C(Nc1cccc(F)c1F)c1ccc(Cl)cc1 (stereo not drawn) [Cpd 167] | 97 | 34 nM | 
33 | O=C(C(Nc1ccccc1F)c1ccc(-c2ccccc2)nc1)N1CCCC1c1ccccc1F (single isomer, unassigned) [Cpd 308] |  |  | % Inh @ 0.2 μM ([2]; canine TRPM8 HEK293, icilin): 11%
34 | CC(C)(C)c1ccc(C(Nc2ccccc2)C(=O)N2CCCC2c2ccccn2)cc1 (stereo not drawn) [Cpd 55] | 99.9 | 207 nM | 

Row | Compound | inhibition at 0.5 µM ([2]; canine TRPM8 HEK293, icilin) [%] | IC50 [2] | other results
35 | CC(C)(C)c1ccc(C(Nc2ccccc2)C(=O)N2CCCC2c2ccc(Cl)cc2)cc1 (single isomer, unassigned) [Cpd 7] |  | 636 nM | % Inh @ 1 μM ([2]; 1 μM compound, canine TRPM8 HEK293, icilin, 1 µM): 89.12%
36 | O=C(C(Nc1ccccc1)c1ccc(Br)cc1)N1CCCC1c1ccccc1Cl (stereo not drawn) [Cpd 67] | 102 | 42 nM | 
37 | O=C(C(Nc1ccccc1)c1ccc(C(F)(F)F)cc1)N1CCCC1c1ccco1 (stereo not drawn) [Cpd 52] | 97.8 | 19.8 nM | 
38 | CNC(=O)c1ccc(C(Nc2c(F)cccc2F)C(=O)N2CCCC2c2ccccc2F)cc1 (mixture of isomers) [Cpd 265] |  |  | % Inh @ 0.2 μM ([2]; canine TRPM8 HEK293, icilin): 15%
39 | O=C(C(Nc1ccccc1)c1ccc(C(F)(F)F)cc1)N1CCCC1c1ccccc1Cl (single isomer, unassigned) [Cpd 23] |  | 17.2 nM | % Inh @ 0.5 μM [2, 3]: 103.39%
40 | O=C(C(Nc1c(F)cccc1F)c1ccc(Br)cc1)N1CCCC1c1ccccc1F (single isomer, unassigned) [Cpd 161] | 93 | 63 nM and 36 nM | inhibition at 0.2 µM ([2]; canine TRPM8 HEK293, icilin): 98%
41 | O=C(C(NC1CCCCC1)c1ccc(C(F)(F)F)cc1)N1CCc2ccccc21 (racemic) [Cpd 41] |  |  | % Inh @ 0.5 μM ([2]; canine TRPM8 HEK293, icilin): 70.995%
42 | O=C(C(Nc1ccccc1F)c1ccc(C(F)(F)F)cc1)N1CCCC1c1cccc(F)c1 (single isomer, unassigned) [Cpd 185] |  | 150 nM | inhibition at 0.2 µM ([2]; canine TRPM8 HEK293, icilin): 82%
43 | COc1ccc(NC(C(=O)N2Cc3ccccc3C2)c2ccc(Cl)cc2)cc1 (stereo not drawn) [Cpd 140] | 97 | 131 nM | 
44 | O=C(C(Nc1ccccc1)c1ccc(C(F)(F)F)cc1)N1CCCC1c1ccccc1F (single isomer, unassigned) [Cpd 48] |  | 219 nM | % Inh @ 0.5 μM [2, 3]: 85.869%
45 | COC(=O)C1CCC(c2ccccc2)N1C(=O)C(Nc1c(F)cccc1F)c1ccc(Br)cc1 (stereo not drawn) [Cpd 211] |  |  | % Inh @ 0.2 μM [2, 4]: 69%
46 | O=C(C(Nc1ccccc1F)c1ccc(C(F)(F)F)cc1)N1CCc2ccccc21 (stereo not drawn) [Cpd 36] | 90.7 | 459 nM | 
47 | O=C(C(Nc1ccccc1)c1ccc(C(F)(F)F)cc1)N1CCCC1c1cccnc1 (stereo not drawn) [Cpd 19] |  | 282 nM | inhibition at 1 µM ([2]; HEK293, 1 μM compound, canine TRPM8 HEK293, icilin): 100%
48 | O=C(C(Nc1ccc(F)cc1F)c1ccc(Cl)cc1)N1CCCC1c1ccccc1F (stereo not drawn) [Cpd 123] | 97 | 101 nM | 
49 | COc1ccccc1C1CCCN1C(=O)C(Nc1ccc(F)cc1)c1ccc(Cl)cc1 (stereo not drawn) [Cpd 118] | 100 | 31.7 nM | 
50 | CN(c1ccccc1F)C(C(=O)N1CCCC1c1ccccc1F)c1ccc(C(F)(F)F)cc1 (stereo not drawn) [Cpd 233] |  |  | % Inh @ 0.2 μM ([2]; canine TRPM8 HEK293, icilin): 10%
51 | O=C(C(Nc1ccccc1)c1ccc(C(F)(F)F)cc1)N1CCCC1c1cc2ccccc2[nH]1 (stereo not drawn) [Cpd 25] | 102 | 141 nM | 
